The subject of one test is ERK. In words: Compound I-induced change in ERK phosphorylation in GBM cultures (immunoblotting). The note with it: 10 GBM cultures; 1 μM compound I for 1 h; 10% FCS. The format is cell-based, human. (In western blotting, separated proteins are transferred to a membrane and probed.)
In another test the test system is Akt. In words: Compound I-induced change in Akt phosphorylation in GBM cultures (immunoblotting). Format: cell-based, human. The note with it: 10 GBM cultures; 1 μM compound I for 1 h; 10% FCS.
Another test has as its system GBM culture 5. In words: cells. The note with it: Homo sapiens, 96 h, read-out: growth inhibition (% reduction of increase in cell number).
For a further test, the system named is GBM culture 18. The experiment in a line: cells. The note with it: Homo sapiens, 96 h, read-out: growth inhibition (% reduction of increase in cell number).
The next test deals with GBM culture 21. The experiment in a line: cells. The note with it: Homo sapiens, 96 h, read-out: growth inhibition (% reduction of increase in cell number).
For another test, the system named is GBM culture 30. In words: cells. The note with it: Homo sapiens, 96 h, read-out: growth inhibition (% reduction of increase in cell number).
The next test relates to GBM culture 34. In words: cells. The note with it: Homo sapiens, 96 h, read-out: growth inhibition (% reduction of increase in cell number).
The next test deals with GBM culture 35. In words: cells. The note with it: Homo sapiens, 96 h, read-out: growth inhibition (% reduction of increase in cell number).
The subject of the next test is GBM culture 38. The experiment in a line: cells. The note with it: Homo sapiens, 96 h, read-out: growth inhibition (% reduction of increase in cell number).
The subject of a further test is GBM culture 6. In words: cells. The note with it: Homo sapiens, 96 h, read-out: growth inhibition (% reduction of increase in cell number).
The subject of the next test is GBM culture 7. In words: cells. The note with it: Homo sapiens, 96 h, read-out: growth inhibition (% reduction of increase in cell number).
For the next test, the system named is GBM culture 9. The experiment in a line: cells. The note with it: Homo sapiens, 96 h, read-out: growth inhibition (% reduction of increase in cell number).
The subject of the next test is GBM culture 11. In words: cells. The note with it: Homo sapiens, 96 h, read-out: growth inhibition (% reduction of increase in cell number).
The test system of the next test is GBM culture 31. The experiment in a line: cells. The note with it: Homo sapiens, 96 h, read-out: growth inhibition (% reduction of increase in cell number).
For a further test, the system named is GBM culture 45. The experiment in a line: cells. The note with it: Homo sapiens, 96 h, read-out: growth inhibition (% reduction of increase in cell number).
Another test has as its system GBM culture 8. In words: cells. The note with it: Homo sapiens, 96 h, read-out: growth inhibition (% reduction of increase in cell number).
A further test deals with GBM culture 27. The experiment in a line: cells. The note with it: Homo sapiens, 96 h, read-out: growth inhibition (% reduction of increase in cell number).
A further test relates to GBM culture 13. The experiment in a line: Growth inhibition induced by compound I, GBM culture 13. The note with it: Homo sapiens, 96 h, read-out: growth inhibition (% reduction of increase in cell number).

A value given as a limit tells only on which side of the number the result lay.

Procedure for Akt: (§1) Glioblastoma cell cultures were confluently plated in 12-well plate wells (Falcon). […] Samples, with normalized protein content, were subjected to SDS-PAGE using 12% gels. Control lysates from un-stimulated and PDGF-BB-stimulated PAE/Rβ cells were loaded on each gel. Samples were electrophoretically transferred to Hydrobond-C-Extra filters (Amersham Life Science). For detection of phosphorylated forms of ERK and Akt, filters were blocked for 1 h in Tris buffered saline pH 7.6 (TBS), 0.137 M NaCl and 0.0035 M Tris-HCl, containing 5% BSA, and incubated over night with 1 μg/ml anti phospho-p44/42 MAPK Thr202/Tyr204 (Cell Signaling Technology) or 1 μg/ml anti phospho-Akt Ser473 (Cell Signaling Technology) in TBS with 0.001% Tween-20 (TTBS). After three 10 min washes in TTBS, the filters were incubated for 1 h with horseradish peroxidase coupled sheep anti-rabbit antibody (Amersham Life Science) diluted 1:25000, and washed three times 10 min in TTBS. The antigens were detected using the Lumi-Light plus western blotting substrate (Roche) according to the manufacturer's instruction with an Intelligent Darkbox II digital scanner (FUJIFILM). […] Values were quantified by using the AIDA software version 3.10.039 (FUJIFILM). The relative expression and phosphorylation of ERK and Akt in the different GBM cultures, was determined by using the reference samples from the PAE/Rβ cells.
Procedure for ERK: as §1

For `Cc1ccc(NC(=O)c2ccc(CN3CCN(C)CC3)cc2)cc1Nc1nccc(-c2cccnc2)n1` [compound I], the “compound I-induced change in specific phosphorylation of ERK” value in the test on ERK is on record as “only moderate changes”. The “compound I-induced change in specific phosphorylation of Akt” value with Akt is “only moderate changes”. Besides, the inhibition at 1 µM with GBM culture 5, in the test with GBM culture 18, in the test on GBM culture 21, in the test with GBM culture 30, in the test with GBM culture 34 and in the test with GBM culture 35 was less than 15% in each case. The inhibition (as a rule, the relative decrease from the control value, in per cent) at 1 µM was less than 15% with GBM culture 38; more than 40% in the test on GBM culture 6; more than 40% in the test on GBM culture 7; more than 40% with GBM culture 9; more than 40% in the test on GBM culture 11; more than 40% in the test on GBM culture 31. The inhibition at 1 µM with GBM culture 45 was more than 40%; in the test with GBM culture 8 it was 20 to 40%; with GBM culture 27, 20 to 40%; in the test on GBM culture 13, 20 to 40%.
